Data as given in ChEMBL document CHEMBL1938230, “6-Position optimization of tricyclic 4-quinolone-based inhibitors of glycogen synthase kinase-3β: discovery of nitrile derivatives with picomolar potency” (Bioorg Med Chem Lett, 2012).

Tests used:
[1] = molecular target: T1, Dual specificity mitogen-activated protein kinase kinase 6 (Homo sapiens) (UniProt P52564); assay: Inhibition of human MAP2K6 in HL-60 cells lysate assessed as reduction of labeling of acyl-phosphate ATP probe at 100 nM; type: cell-free
T1 sequence (whole entry): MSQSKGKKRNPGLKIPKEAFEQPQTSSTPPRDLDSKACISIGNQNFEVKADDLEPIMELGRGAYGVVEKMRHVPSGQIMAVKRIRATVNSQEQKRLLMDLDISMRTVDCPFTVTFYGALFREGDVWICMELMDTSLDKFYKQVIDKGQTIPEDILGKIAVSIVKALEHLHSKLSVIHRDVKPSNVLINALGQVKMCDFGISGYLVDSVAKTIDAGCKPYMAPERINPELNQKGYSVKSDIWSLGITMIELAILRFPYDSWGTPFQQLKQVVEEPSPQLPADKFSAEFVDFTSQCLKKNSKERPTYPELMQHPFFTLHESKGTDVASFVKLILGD

[2] = molecular target: T2, Mitogen-activated protein kinase kinase kinase 2 (Homo sapiens) (UniProt Q9Y2U5); assay: Inhibition of human MAP3K2 in HL-60 cells lysate assessed as reduction of labeling of acyl-phosphate ATP probe at 100 nM; type: cell-free
T2 sequence (whole entry): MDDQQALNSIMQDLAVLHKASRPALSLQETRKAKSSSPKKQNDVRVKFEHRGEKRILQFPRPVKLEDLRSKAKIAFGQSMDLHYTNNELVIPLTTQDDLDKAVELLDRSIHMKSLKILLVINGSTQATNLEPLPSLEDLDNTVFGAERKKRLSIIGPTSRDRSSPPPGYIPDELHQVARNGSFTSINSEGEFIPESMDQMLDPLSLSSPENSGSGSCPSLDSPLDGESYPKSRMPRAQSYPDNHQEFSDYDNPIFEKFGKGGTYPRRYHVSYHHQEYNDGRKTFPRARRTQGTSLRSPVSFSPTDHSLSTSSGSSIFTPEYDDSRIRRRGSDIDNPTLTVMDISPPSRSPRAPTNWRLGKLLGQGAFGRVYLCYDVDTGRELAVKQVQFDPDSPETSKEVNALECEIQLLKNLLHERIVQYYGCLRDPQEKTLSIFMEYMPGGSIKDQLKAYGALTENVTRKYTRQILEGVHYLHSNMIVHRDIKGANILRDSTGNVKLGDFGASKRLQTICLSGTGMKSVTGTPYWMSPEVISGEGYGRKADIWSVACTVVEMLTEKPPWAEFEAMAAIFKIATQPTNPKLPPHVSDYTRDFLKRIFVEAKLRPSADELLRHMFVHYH

[3] = molecular target: Phosphatidylinositol 4-phosphate 3-kinase C2 domain-containing subunit beta (Homo sapiens) (UniProt O00750); assay: Inhibition of human PIK3C2B in HL-60 cells lysate assessed as reduction of labeling of acyl-phosphate ATP probe at 100 nM; type: cell-free
[4] = molecular target: Phosphatidylinositol 4,5-bisphosphate 3-kinase catalytic subunit beta isoform (Homo sapiens) (UniProt P42338); assay: Inhibition of human PIK3CB in HL-60 cells lysate assessed as reduction of labeling of acyl-phosphate ATP probe at 100 nM; type: cell-free
[5] = molecular target: Tyrosine-protein kinase BTK (Homo sapiens) (UniProt Q06187); assay: Inhibition of human BTK in HL-60 cells lysate assessed as reduction of labeling of acyl-phosphate ATP probe at 100 nM; type: cell-free
[6] = molecular target: Tyrosine-protein kinase ABL (Homo sapiens) (UniProt P00519+P42684); assay: Inhibition of human ABL/ARG in HL-60 cells lysate assessed as reduction of labeling of acyl-phosphate ATP probe at 100 nM; type: cell-free
[7] = molecular target: T3, Phosphatidylinositol 5-phosphate 4-kinase type-2 alpha (Homo sapiens) (UniProt P48426); assay: Inhibition of human PIP4K2A in HL-60 cells lysate assessed as reduction of labeling of acyl-phosphate ATP probe at 100 nM; type: cell-free
T3 sequence (whole entry): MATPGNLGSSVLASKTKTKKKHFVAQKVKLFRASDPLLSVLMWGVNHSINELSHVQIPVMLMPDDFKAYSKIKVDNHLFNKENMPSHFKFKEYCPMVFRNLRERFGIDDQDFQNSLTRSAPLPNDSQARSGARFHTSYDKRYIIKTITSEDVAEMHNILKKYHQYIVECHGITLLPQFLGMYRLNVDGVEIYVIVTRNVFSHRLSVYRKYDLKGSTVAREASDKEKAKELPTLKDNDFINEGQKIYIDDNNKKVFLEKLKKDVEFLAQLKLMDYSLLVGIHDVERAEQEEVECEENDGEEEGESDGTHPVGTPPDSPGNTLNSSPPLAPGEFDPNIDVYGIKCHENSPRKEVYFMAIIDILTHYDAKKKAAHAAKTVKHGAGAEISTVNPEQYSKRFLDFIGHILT

[8] = molecular target: Mitogen-activated protein kinase kinase kinase 1 (Homo sapiens) (UniProt Q13233); assay: Inhibition of human MAP3K1 in HL-60 cells lysate assessed as reduction of labeling of acyl-phosphate ATP probe at 100 nM; type: cell-free
[9] = molecular target: Tyrosine-protein kinase HCK (Homo sapiens) (UniProt P08631); assay: Inhibition of human HCK in HL-60 cells lysate assessed as reduction of labeling of acyl-phosphate ATP probe at 100 nM; type: cell-free
[10] = molecular target: Mitogen-activated protein kinase 1 (Homo sapiens) (UniProt P28482); assay: Inhibition of human Erk2 in HL-60 cells lysate assessed as reduction of labeling of acyl-phosphate ATP probe at 100 nM; type: cell-free
[11] = molecular target: Serine/threonine-protein kinase PLK1 (Homo sapiens) (UniProt P53350); assay: Inhibition of human PLK1 in HL-60 cells lysate assessed as reduction of labeling of acyl-phosphate ATP probe at 100 nM; type: cell-free
HL-60 = assay: Inhibition of human FYN/SRC/YES in HL-60 cells lysate assessed as reduction of labeling of acyl-phosphate ATP probe at 100 nM

Chain of Mitogen-activated protein kinase kinase kinase 1 (Homo sapiens) (Q13233 whole entry): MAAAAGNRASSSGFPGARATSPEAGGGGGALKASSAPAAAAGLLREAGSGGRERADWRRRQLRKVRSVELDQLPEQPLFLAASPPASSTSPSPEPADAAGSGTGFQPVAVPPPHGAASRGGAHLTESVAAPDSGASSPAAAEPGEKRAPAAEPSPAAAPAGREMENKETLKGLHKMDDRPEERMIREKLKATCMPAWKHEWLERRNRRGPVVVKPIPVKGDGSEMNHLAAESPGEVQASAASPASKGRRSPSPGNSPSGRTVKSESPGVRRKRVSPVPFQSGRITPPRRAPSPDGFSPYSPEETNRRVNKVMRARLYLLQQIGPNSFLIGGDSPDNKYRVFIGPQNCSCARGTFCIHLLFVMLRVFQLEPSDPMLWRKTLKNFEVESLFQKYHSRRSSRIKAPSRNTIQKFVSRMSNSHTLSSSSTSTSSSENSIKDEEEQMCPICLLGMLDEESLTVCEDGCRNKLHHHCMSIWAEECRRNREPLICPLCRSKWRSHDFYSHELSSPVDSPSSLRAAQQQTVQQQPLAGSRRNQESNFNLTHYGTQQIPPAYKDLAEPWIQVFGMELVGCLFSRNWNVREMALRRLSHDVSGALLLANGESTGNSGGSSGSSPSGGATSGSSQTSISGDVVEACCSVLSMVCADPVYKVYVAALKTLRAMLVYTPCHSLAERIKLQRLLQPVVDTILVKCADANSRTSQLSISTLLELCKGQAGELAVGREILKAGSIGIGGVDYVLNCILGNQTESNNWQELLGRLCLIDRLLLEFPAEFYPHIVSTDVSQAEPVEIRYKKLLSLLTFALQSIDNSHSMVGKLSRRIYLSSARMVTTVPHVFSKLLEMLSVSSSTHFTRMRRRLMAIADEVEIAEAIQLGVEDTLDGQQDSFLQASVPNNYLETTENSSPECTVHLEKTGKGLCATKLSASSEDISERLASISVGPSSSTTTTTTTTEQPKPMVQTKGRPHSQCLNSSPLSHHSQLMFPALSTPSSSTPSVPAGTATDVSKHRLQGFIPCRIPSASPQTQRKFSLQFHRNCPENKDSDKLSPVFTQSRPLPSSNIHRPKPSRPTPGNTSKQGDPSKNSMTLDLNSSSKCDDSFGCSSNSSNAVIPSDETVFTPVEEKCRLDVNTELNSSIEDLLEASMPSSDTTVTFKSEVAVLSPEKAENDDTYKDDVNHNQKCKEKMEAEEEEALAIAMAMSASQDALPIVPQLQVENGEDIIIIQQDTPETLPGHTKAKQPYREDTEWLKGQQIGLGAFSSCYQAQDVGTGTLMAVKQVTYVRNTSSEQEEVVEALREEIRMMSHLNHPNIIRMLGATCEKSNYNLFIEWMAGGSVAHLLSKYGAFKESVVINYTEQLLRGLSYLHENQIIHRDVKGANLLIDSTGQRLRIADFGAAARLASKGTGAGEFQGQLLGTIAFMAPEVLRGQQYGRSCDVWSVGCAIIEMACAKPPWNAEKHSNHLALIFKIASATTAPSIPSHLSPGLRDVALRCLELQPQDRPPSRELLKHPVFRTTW
Chain of Tyrosine-protein kinase ABL (Homo sapiens) (P00519 whole entry, looked up): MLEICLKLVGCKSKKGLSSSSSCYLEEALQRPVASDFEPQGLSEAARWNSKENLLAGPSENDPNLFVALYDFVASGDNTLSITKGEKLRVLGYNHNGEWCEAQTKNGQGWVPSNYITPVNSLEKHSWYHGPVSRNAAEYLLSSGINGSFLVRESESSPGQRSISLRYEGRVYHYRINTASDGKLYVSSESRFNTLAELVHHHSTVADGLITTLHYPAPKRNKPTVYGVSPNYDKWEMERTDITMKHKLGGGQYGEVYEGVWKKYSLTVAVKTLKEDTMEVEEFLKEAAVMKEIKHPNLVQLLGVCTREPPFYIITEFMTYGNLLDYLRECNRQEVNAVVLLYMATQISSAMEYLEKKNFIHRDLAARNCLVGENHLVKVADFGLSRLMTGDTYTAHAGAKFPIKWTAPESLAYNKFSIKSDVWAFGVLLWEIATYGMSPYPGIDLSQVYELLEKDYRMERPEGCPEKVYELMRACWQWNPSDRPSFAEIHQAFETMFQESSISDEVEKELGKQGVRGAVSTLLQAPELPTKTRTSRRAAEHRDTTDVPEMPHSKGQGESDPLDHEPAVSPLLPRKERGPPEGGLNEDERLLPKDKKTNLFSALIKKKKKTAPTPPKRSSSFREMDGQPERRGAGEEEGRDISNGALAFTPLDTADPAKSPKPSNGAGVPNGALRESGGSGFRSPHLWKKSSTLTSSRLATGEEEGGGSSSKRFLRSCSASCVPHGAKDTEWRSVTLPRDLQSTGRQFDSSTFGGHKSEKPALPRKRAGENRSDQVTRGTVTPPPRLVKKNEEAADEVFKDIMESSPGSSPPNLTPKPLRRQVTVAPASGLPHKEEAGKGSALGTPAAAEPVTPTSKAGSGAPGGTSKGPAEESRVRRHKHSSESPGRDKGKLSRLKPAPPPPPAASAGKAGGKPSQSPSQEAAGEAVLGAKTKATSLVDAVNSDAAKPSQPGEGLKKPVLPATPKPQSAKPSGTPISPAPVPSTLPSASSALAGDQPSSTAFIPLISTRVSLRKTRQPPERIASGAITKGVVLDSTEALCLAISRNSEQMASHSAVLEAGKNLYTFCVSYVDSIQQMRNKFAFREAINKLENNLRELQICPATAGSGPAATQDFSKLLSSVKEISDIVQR
Chain of Tyrosine-protein kinase ABL (Homo sapiens) (P42684 whole entry, looked up): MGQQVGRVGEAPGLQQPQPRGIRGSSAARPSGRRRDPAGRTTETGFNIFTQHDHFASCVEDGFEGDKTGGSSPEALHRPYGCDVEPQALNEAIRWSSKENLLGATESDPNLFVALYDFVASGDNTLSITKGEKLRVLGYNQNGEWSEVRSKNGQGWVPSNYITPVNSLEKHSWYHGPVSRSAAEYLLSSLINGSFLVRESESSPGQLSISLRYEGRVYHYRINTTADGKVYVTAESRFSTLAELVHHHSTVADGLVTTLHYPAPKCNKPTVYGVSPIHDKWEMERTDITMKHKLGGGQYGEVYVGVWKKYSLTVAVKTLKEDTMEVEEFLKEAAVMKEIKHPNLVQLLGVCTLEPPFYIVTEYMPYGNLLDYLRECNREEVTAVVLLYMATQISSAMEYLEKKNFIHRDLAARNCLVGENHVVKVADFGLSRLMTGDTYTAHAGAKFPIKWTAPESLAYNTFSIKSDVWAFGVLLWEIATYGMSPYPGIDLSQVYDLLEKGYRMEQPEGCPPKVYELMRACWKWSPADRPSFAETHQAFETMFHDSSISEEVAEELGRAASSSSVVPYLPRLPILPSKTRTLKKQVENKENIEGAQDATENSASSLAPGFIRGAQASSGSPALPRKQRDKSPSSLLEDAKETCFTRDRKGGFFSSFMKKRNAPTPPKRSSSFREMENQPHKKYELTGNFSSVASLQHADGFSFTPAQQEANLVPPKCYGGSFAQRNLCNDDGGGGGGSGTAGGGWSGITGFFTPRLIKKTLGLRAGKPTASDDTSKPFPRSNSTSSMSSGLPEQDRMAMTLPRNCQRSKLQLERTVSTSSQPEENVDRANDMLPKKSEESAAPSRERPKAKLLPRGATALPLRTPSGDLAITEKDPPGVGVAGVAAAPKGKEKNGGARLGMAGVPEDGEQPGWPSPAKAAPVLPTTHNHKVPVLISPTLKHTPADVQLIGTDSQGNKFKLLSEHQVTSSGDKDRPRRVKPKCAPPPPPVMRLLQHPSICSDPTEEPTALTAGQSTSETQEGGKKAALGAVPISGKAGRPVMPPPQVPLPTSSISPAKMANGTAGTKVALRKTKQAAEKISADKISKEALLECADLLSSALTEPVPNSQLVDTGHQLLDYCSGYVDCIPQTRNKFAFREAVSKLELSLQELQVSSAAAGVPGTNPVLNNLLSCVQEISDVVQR
Chain of Mitogen-activated protein kinase 1 (Homo sapiens) (P28482 whole entry): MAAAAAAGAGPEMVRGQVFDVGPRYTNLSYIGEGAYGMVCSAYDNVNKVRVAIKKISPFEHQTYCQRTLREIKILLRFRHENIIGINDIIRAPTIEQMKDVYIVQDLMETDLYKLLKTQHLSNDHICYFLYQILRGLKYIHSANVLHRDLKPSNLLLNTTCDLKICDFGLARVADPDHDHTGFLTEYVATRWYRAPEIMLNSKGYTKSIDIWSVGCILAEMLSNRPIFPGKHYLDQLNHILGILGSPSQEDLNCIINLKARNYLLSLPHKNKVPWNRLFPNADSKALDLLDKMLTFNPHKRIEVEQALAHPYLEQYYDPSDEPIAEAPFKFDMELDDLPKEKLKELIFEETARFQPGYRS
Chain of Tyrosine-protein kinase HCK (Homo sapiens) (P08631 2-526 limits assumed): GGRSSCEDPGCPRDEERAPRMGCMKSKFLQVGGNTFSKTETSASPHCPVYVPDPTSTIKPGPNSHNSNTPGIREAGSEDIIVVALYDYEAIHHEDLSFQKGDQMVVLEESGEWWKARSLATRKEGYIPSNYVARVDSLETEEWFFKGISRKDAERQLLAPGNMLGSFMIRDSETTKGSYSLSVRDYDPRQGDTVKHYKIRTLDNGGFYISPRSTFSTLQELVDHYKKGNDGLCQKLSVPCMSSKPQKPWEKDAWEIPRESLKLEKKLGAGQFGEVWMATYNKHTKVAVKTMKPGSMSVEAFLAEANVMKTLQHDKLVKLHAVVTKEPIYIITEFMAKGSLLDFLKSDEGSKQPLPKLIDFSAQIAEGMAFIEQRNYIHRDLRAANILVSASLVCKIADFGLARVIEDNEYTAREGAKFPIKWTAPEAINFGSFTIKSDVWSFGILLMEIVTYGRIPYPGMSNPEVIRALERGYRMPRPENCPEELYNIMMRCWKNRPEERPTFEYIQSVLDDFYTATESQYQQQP

C[C@H]1COc2c(NCCCc3ccccn3)c(F)c(N)c3c(=O)c(C#N)cn1c23
< 35%: inhibition [1] | inhibition [2] | inhibition [3] | inhibition [4] | inhibition [5] | inhibition [6] | inhibition [7] | inhibition [8] | inhibition [9] | inhibition [10] | inhibition [11] | inhibition at 0.1 µM (HL-60)

C[C@H]1COc2c(NCCCc3ccccn3)c(F)c(N)c3c(=O)c(C(=O)O)cn1c23
< 35%: inhibition [1] | inhibition [2] | inhibition [3] | inhibition [4] | inhibition [5] | inhibition [6] | inhibition [7] | inhibition [8] | inhibition [9] | inhibition [10] | inhibition [11] | inhibition at 0.1 µM (HL-60)

C[C@H]1COc2c(NCCCn3cccn3)c(F)c(N)c3c(=O)c(C(=O)O)cn1c23
< 35%: inhibition [1] | inhibition [2] | inhibition [3] | inhibition [4] | inhibition [5] | inhibition [6] | inhibition [7] | inhibition [8] | inhibition [9] | inhibition [10] | inhibition [11] | inhibition at 0.1 µM (HL-60)

C[C@H]1COc2c(NCCCn3cccn3)c(F)c(N)c3c(=O)c(C#N)cn1c23
< 35%: inhibition [1] | inhibition [2] | inhibition [3] | inhibition [4] | inhibition [5] | inhibition [6] | inhibition [7] | inhibition [8] | inhibition [9] | inhibition [10] | inhibition [11] | inhibition at 0.1 µM (HL-60)
